Active and inactive are the calls of the source. How the calls were made is not given here.
System: CCRIS mutagenicity, Ames/micronucleus/aberration tests
Assay: CCRIS mutagenicity studies
Text: The CCRIS database contains chemical records with carcinogenicity, mutagenicity, tumor promotion, and tumor inhibition test results. It was developed by the National Cancer Institute (NCI). Data are derived from studies cited in primary journals, current awareness tools, NCI reports, and other sources. Test results have been reviewed by experts in carcinogenesis and mutagenesis.
CCRIS provides historical information from the years 1985 - 2011. It is no longer updated.
This is an archive assay for CCRIS mutagenicity studies.

[1] = Test System: AMES SALMONELLA TYPHIMURIUM, Strain/Indicator: TA98, Metabolic Activation: NONE, Method: STANDARD PLATE
[2] = Test System: AMES SALMONELLA TYPHIMURIUM, Strain/Indicator: TA98, Metabolic Activation: RAT, LIVER, S-9, AROCLOR 1254, Method: STANDARD PLATE
[3] = Test System: AMES SALMONELLA TYPHIMURIUM, Strain/Indicator: TA100, Metabolic Activation: NONE, Method: STANDARD PLATE
[4] = Test System: AMES SALMONELLA TYPHIMURIUM, Strain/Indicator: TA100, Metabolic Activation: RAT, LIVER, S-9, AROCLOR 1254, Method: STANDARD PLATE
[5] = Test System: AMES SALMONELLA TYPHIMURIUM, Strain/Indicator: TA1535, Metabolic Activation: NONE, Method: STANDARD PLATE
[6] = Test System: AMES SALMONELLA TYPHIMURIUM, Strain/Indicator: TA1535, Metabolic Activation: RAT, LIVER, S-9, AROCLOR 1254, Method: STANDARD PLATE
[7] = Test System: AMES SALMONELLA TYPHIMURIUM, Strain/Indicator: TA1537, Metabolic Activation: NONE, Method: STANDARD PLATE
[8] = Test System: AMES SALMONELLA TYPHIMURIUM, Strain/Indicator: TA1537, Metabolic Activation: RAT, LIVER, S-9, AROCLOR 1254, Method: STANDARD PLATE
[9] = Test System: AMES SALMONELLA TYPHIMURIUM, Strain/Indicator: TA97, Metabolic Activation: NONE, Method: STANDARD PLATE
[10] = Test System: AMES SALMONELLA TYPHIMURIUM, Strain/Indicator: TA102, Metabolic Activation: NONE, Method: STANDARD PLATE

For `CC1=C(C(=O)OCCN(Cc2ccccc2)c2ccccc2)C(c2cccc([N+](=O)[O-])c2)C(P2(=O)OCC(C)(C)CO2)=C(C)N1` (configuration not stated), the mutagenic call (Test System: AMES SALMONELLA TYPHIMURIUM, Strain/Indicator: TA98, Metabolic Activation: NONE) was “inactive; negative”, the mutagenic call (Test System: AMES SALMONELLA TYPHIMURIUM, Strain/Indicator: TA98, Metabolic Activation: RAT, LIVER, S-9, PHENOBARBITAL AND 5,6-BENZOFLAVONE) was “inactive; negative” and the mutagenic call (Test System: AMES SALMONELLA TYPHIMURIUM, Strain/Indicator: TA100, Metabolic Activation: NONE) was “inactive; negative”. For the same molecule, the mutagenic call (Test System: AMES SALMONELLA TYPHIMURIUM, Strain/Indicator: TA100, Metabolic Activation: RAT, LIVER, S-9, PHENOBARBITAL AND 5,6-BENZOFLAVONE) was “inactive; negative”, the mutagenic call (Test System: AMES SALMONELLA TYPHIMURIUM, Strain/Indicator: TA1535, Metabolic Activation: NONE) was “inactive; negative” and the mutagenic call (Test System: AMES SALMONELLA TYPHIMURIUM, Strain/Indicator: TA1535, Metabolic Activation: RAT, LIVER, S-9, PHENOBARBITAL AND 5,6-BENZOFLAVONE) was “inactive; negative”. For the same molecule, the mutagenic call (Test System: AMES SALMONELLA TYPHIMURIUM, Strain/Indicator: TA1537, Metabolic Activation: NONE) was “inactive; negative”, the mutagenic call (Test System: AMES SALMONELLA TYPHIMURIUM, Strain/Indicator: TA1537, Metabolic Activation: RAT, LIVER, S-9, PHENOBARBITAL AND 5,6-BENZOFLAVONE) was “inactive; negative” and the mutagenic call (Test System: E.COLI, Strain/Indicator: WP2 UVRA, Metabolic Activation: NONE) was “inactive; negative”.

With `OC/C=C/C=C/CO` the mutagenic call (Test System: CHINESE HAMSTER V-79, Strain/Indicator: V-79 (HGPRT)/8-AZAGUANINE, Metabolic Activation: NONE) was “inactive; negative”.

In the case of `CCc1ccco1`, the mutagenic call (Test System: AMES SALMONELLA TYPHIMURIUM, Strain/Indicator: TA98, Metabolic Activation: HAMSTER, LIVER, S-9, AROCLOR 1254, Method: STANDARD PLATE) is reported as “inactive; negative”, the mutagenic call [1] is reported as “inactive; negative” and the mutagenic call [2] is reported as “inactive; negative”. The mutagenic call (Test System: AMES SALMONELLA TYPHIMURIUM, Strain/Indicator: TA100, Metabolic Activation: HAMSTER, LIVER, S-9, AROCLOR 1254, Method: STANDARD PLATE) was “inactive; negative”, the mutagenic call [3] was “inactive; negative” and the mutagenic call [4] was “inactive; negative”. For the same molecule, the mutagenic call (Test System: AMES SALMONELLA TYPHIMURIUM, Strain/Indicator: TA1535, Metabolic Activation: HAMSTER, LIVER, S-9, AROCLOR 1254, Method: STANDARD PLATE) was “inactive; negative”, the mutagenic call [5] was “inactive; negative” and the mutagenic call [6] was “inactive; negative”. The mutagenic call (Test System: AMES SALMONELLA TYPHIMURIUM, Strain/Indicator: TA1537, Metabolic Activation: HAMSTER, LIVER, S-9, AROCLOR 1254, Method: STANDARD PLATE) was “inactive; negative”, the mutagenic call [7] was “inactive; negative” and the mutagenic call [8] was “inactive; negative”. The mutagenic call (Test System: AMES SALMONELLA TYPHIMURIUM, Strain/Indicator: TA1538, Metabolic Activation: HAMSTER, LIVER, S-9, AROCLOR 1254, Method: STANDARD PLATE) was “inactive; negative”, the mutagenic call (Test System: AMES SALMONELLA TYPHIMURIUM, Strain/Indicator: TA1538, Metabolic Activation: NONE, Method: STANDARD PLATE) was “inactive; negative” and the mutagenic call (Test System: AMES SALMONELLA TYPHIMURIUM, Strain/Indicator: TA1538, Metabolic Activation: RAT, LIVER, S-9, AROCLOR 1254, Method: STANDARD PLATE) was “inactive; negative”. For the same molecule, the mutagenic call (Test System: MOUSE LYMPHOMA, Strain/Indicator: L5178Y (TK+/TK-), Metabolic Activation: NONE, Method: SUSPENSION/PLATE) was “inactive; negative”, the mutagenic call (Test System: MOUSE LYMPHOMA, Strain/Indicator: L5178Y (TK+/TK-), Metabolic Activation: RAT, LIVER, S-9, AROCLOR 1254, Method: SUSPENSION/PLATE) was “active; positive” and the mutagenic call (Test System: Mouse lymphoma, Strain/Indicator: L5178Y (tk+/tk-), Metabolic Activation: Rat, Liver, S-9, Aroclor 1254, Method: Suspension/plate) was “active; equivocal (previous evaluation positive)”.

In the case of `O=C1C=Cc2ccc3c4c(ccc1c24)C=CC3=O`, the mutagenic call [9] is reported as “active; positive”, the mutagenic call (Test System: AMES SALMONELLA TYPHIMURIUM, Strain/Indicator: TA97, Metabolic Activation: RAT, LIVER, S-9, PCB, Method: STANDARD PLATE) is reported as “active; positive” and the mutagenic call [1] is reported as “inactive; negative”. The mutagenic call (Test System: AMES SALMONELLA TYPHIMURIUM, Strain/Indicator: TA98, Metabolic Activation: RAT, LIVER, S-9, PCB, Method: STANDARD PLATE) was “inactive; negative”, the mutagenic call [3] was “inactive; negative” and the mutagenic call (Test System: AMES SALMONELLA TYPHIMURIUM, Strain/Indicator: TA100, Metabolic Activation: RAT, LIVER, S-9, PCB, Method: STANDARD PLATE) was “inactive; negative”.

`Cc1ccc([N+]#N)cc1` was tested, and the mutagenic call [3] was “active; positive”, the mutagenic call [10] was “active; positive” and the mutagenic call (Test System: CHINESE HAMSTER V-79, Strain/Indicator: V-79/6-THIOGUANINE, Metabolic Activation: NONE) was “active; positive”.

`O=[N+]([O-])c1cccc(NS(=O)(=O)c2cccc3cccnc23)c1` was tested, and the mutagenic call [1] was “inactive; negative”, the mutagenic call [2] was “inactive; negative” and the mutagenic call [3] was “inactive; negative”. For the same molecule, the mutagenic call [4] was “inactive; negative”, the mutagenic call [5] was “inactive; negative” and the mutagenic call [6] was “inactive; negative”. The mutagenic call [7] was “inactive; negative” and the mutagenic call [8] was “inactive; negative”.

With `COc1cc(O[C@@H]2O[C@H](CO)[C@@H](O)[C@H](O)[C@H]2O)c2c(=O)c3c(O)ccc(O)c3oc2c1` the mutagenic call (Test System: AMES SALMONELLA TYPHIMURIUM, Strain/Indicator: TA97, Metabolic Activation: RAT, LIVER, S-9, PHENOBARBITAL AND 5,6-BENZOFLAVONE, BETA-GLUCOSIDASE, Method: PREINCUBATION) was “active; positive”, the mutagenic call (Test System: AMES SALMONELLA TYPHIMURIUM, Strain/Indicator: TA98, Metabolic Activation: RAT, LIVER, S-9, PHENOBARBITAL AND 5,6-BENZOFLAVONE, BETA-GLUCOSIDASE, Method: PREINCUBATION) was “inactive; negative” and the mutagenic call (Test System: AMES SALMONELLA TYPHIMURIUM, Strain/Indicator: TA100, Metabolic Activation: RAT, LIVER, S-9, PHENOBARBITAL AND 5,6-BENZOFLAVONE, BETA-GLUCOSIDASE, Method: PREINCUBATION) was “active; positive”. For the same molecule, the mutagenic call (Test System: AMES SALMONELLA TYPHIMURIUM, Strain/Indicator: TA2637, Metabolic Activation: RAT, LIVER, S-9, PHENOBARBITAL AND 5,6-BENZOFLAVONE, BETA-GLUCOSIDASE, Method: PREINCUBATION) was “active; positive”.

For `CC(=O)n1ccnc1`, the mutagenic call [9] was “inactive; negative”, the mutagenic call (Test System: AMES SALMONELLA TYPHIMURIUM, Strain/Indicator: TA97, Metabolic Activation: RAT, LIVER, S-9, AROCLOR 1254, Method: STANDARD PLATE) was “inactive; negative” and the mutagenic call [1] was “inactive; negative”. The mutagenic call [2] was “inactive; negative”, the mutagenic call [3] was “inactive; negative” and the mutagenic call [4] was “inactive; negative”. The mutagenic call [10] was “inactive; negative” and the mutagenic call (Test System: AMES SALMONELLA TYPHIMURIUM, Strain/Indicator: TA102, Metabolic Activation: RAT, LIVER, S-9, AROCLOR 1254, Method: STANDARD PLATE) was “inactive; negative”.

Reference: PubChem BioAssay AID1259407 (Chemical Carcinogenesis Research Information System (CCRIS), 2018)
